Reference: patent US20070134286A1, “Methods for reducing intimal hyperplasia, smooth muscle cell proliferation and restenosis in mammals” (priority 2004, published 2007)
Where two headings read alike, the source gives them in different places.

Columns and labels:
[1] = system: primary culture of human coronary artery smooth muscle cells; experiment: Affymetrix U133Av2 microarray gene expression; format: cell-based; settings: 100 nM, 30 hr, ratio to no-drug control; for FC angiopoietin 1 (NM_001146) / FC coagulation factor II (thrombin) receptor-like 1 (NM_005242) / FC endothelin receptor type B (NM_000115) / FC fibroblast growth factor 9 (glia-activating factor) (NM_002010) / FC fibroblast growth factor receptor 3 (achondroplasia, thanatophoric dwarfism) (NM_000142) / FC insulin-like growth factor 1 (somatomedin C) (NM_000618) / FC matrix metalloproteinase 14 (membrane-inserted) (NM_004995) / FC natriuretic peptide precursor B (NM_002521) / FC oxytocin receptor (NM_000916) / FC phospholamban (NM_002667) / FC prostaglandin-endoperoxide synthase 1 (prostaglandin G/H synthase and cyclooxygenase) (NM_000962) / FC thrombomodulin (NM_000361) / FC thrombospondin 1 (AI812030) / FC transforming growth factor, beta 2 (NM_003238) / FC transforming growth factor, beta 3 (J03241): Table 4
Method: Microarray: […] While the yield of total RNA was low ([…] total per sample), the RNAs were intact as judged by Agilent 2100 analysis. One μg of total RNA from each sample was used to prepare biotin-labeled cRNA target using standard Affymetrix protocols. Prepared cRNA targets were of good quality and quantity. The Affymetrix Human chip U133Av2 was used (22,000+ probe sets) and 10 μg cRNA target was applied to each array. […] Scanned images were loaded into the Rosetta Resolver 4.0 database and processed using the Resolver Affymetrix error model. Within Resolver the drug treated sample replicates (n=3) were informatically combined and ratios constructed relative to the combined control (no addition of drug) samples. The Resolver Affymetrix error model was used to develop each ratio and calculate a p-value. The Resolver error model is robust and includes reporter level, background and error values in the calculation of statistical significance. A combination of hierarchical clustering, gene ontology analysis and pathway mapping were used to assess the function of the regulated genes.

[2] = system: human coronary artery smooth muscle cells; experiment: 3H-thymidine incorporation (DNA synthesis / cell proliferation); format: cell-based
Method: One day after plating, the cells were treated with test agents for 24 hours and then labeled with 0.3 μCi/well of ^3H-thymidine for another 48 hours. Each well was washed with 0.3 ml/well of PBS, incubated with 0.2 ml/well of ice-cold 10% trichloroacetic acid (hereinafter “TCA”) for 30 minutes at 4° C., and then followed by another wash of 0.2 ml/well of TCA. Samples were dissolved in MICROSCINT™ 20 before counting. Data shown are mean ± the standard deviation (n=4).
Thymidine incorporation: Cells were plated at 1×10^6 cells/ml, 200 μl/well into 96-well plates (Costar). One day after plating, the cells were treated with test agents for 24 hr and then labeled with 0.3 μCi/well of ^3H-thymidine for another 48 hr. Each well was washed with 0.3 ml/well of PBS, incubated with 0.2 ml/well of ice-cold 10% trichloroacetic acid (TCA) for 30 min at 4° C., and then followed by another wash of 0.2 ml/well of TCA. Samples were dissolved in MICROSCINT™ 20 (Packard) before counting.

[3] = system: plasminogen activator inhibitor type-1 (PAI-1); experiment: SDS-PAGE and Western blot of PAI-1 in CASMC; format: cell-based, human; settings: Western blot, FIG. 6
Method: SDS-PAGE and Western Blot Analysis: Cells (1×10^6 cells per sample) pretreated with or without test agents were solubilized in 50 μl of SDS-PAGE sample buffer (Sigma, St. Louis, Mo.), and the protein content in each sample was determined by the Pierce (Rockford, Ill.) BCA protein assay. Samples were resolved by SDS-PAGE using a 4-12% NuPAGE gel (Invitrogen, Carlsbad, Calif.), and proteins were electrophoretically transferred to polyvinylidene fluoride (hereinafter “PVDF”) membrane for Western blotting. The membrane was blotted for 1 hour at 25° C. with 5% nonfat dry milk in PBS-T and then incubated with a mouse anti-PAI-1 monoclonal antibody (1000-fold dilution, Santa Cruz Biotechnology, Santa Cruz, Calif.) in PBS-T overnight at 4° C. The membrane was washed with PBS-T and incubated with a horseradish peroxidase-labeled anti-mouse antibody for 1 hour at 25° C. The membrane was then incubated with detection reagent (SuperSignal WestPico, Pierce, Rockford, Ill.). Specific bands were visualized by exposing the paper to Kodak BioMax films.

[4] = system: IGF1; experiment: Real-time RT-PCR, IGF1 mRNA expression in smooth muscle cells; format: cell-based; settings: Homo sapiens, normalized to GAPDH, FIG. 7, read-out: EC50 on IGF1 mRNA expression (up-regulation)
Method: (§1) Primers and probes for Real-time Reverse Transcription-PCR: For quantitative PCR (qPCR), TaqMan™ probes that were 5′ labeled with the reporter 6-carboxyfluorescein (FAM) and 3′ labeled with the quencher tetramethylrhodamine (TAMRA) were used. The primer and probe sets were obtained from the Assay-on-Demand collection (Applied Biosytsems).
(§2) Real-time Reverse Transcription-PCR: PCR was performed with a 7900HT sequence detector (Applied Biosytsems). Each sample has a final volume of 25 μl containing 50 ng of cDNA, […] each of the forward and reverse PCR primers and […] of the TaqMan™ probe. Temperature conditions consisted of a step of 5 minutes at 95° C., followed by 40 cycles of 60° C. for 1 minute and 95° C. for 15 seconds. Data was collected during each extension phase of the PCR reaction and analyzed with the SDS software package (Applied Biosystems). Threshold cycles were determined for each gene. The expression level of target gene of interest was given as relative expression normalized against glyceraldehyde-3-phosphate dehydrogenase (GAPDH).

[5] = system: WT1; experiment: Real-time RT-PCR, WT1 mRNA expression in smooth muscle cells; format: cell-based; settings: Homo sapiens, normalized to GAPDH, FIG. 7, read-out: EC50 on WT1 mRNA expression (up-regulation)
Method: as §1, §2

[6] = system: TGFβ3; experiment: Real-time RT-PCR, TGFβ3 mRNA expression in smooth muscle cells; format: cell-based; settings: Homo sapiens, normalized to GAPDH, FIG. 7, read-out: EC50 on TGFβ3 mRNA expression (up-regulation)
Method: as §1, §2

[7] = system: VDR; settings: 0.1 μM, CASMC in growth medium, not all cells responded, FIG. 2

Compound: C=C1/C(=C\C=C2/CCC[C@]3(C)[C@@H]([C@H](C)CCCC(C)(C)O)CC[C@@H]23)C[C@@H](O)C[C@@H]1O [calcitriol, 1-alpha-25-dihydroxyvitamin D3]
- FC CD1D antigen, d polypeptide (205789_at) [1]: 6.95
- FC CDK5 regulatory subunit associated protein 2 (220935_s_at) [1]: 2.67
- FC Kruppel-like factor 4 (gut) (220266_s_at) [1]: 2.67
- FC PMS2 postmeiotic segregation increased 2 (S. cerevisiae) (209805_at) [1]: 2.85
- FC Wilms tumor 1 (206067_s_at) [1]: 3.55
- FC Wilms tumor 1 (216953_s_at) [1]: 6.63
- FC Wilms tumor associated protein (206954_at) [1]: 2.96
- FC basic helix-loop-helix domain containing, class B, 3 (221530_s_at) [1]: −2.00
- FC cholecystokinin B receptor (210381_s_at) [1]: −1.65
- FC cyclin F (204827_s_at) [1]: −1.09
- FC cysteine and glycine-rich protein 2 (207030_s_at) [1]: −2.13
- FC cysteine and glycine-rich protein 2 (211126_s_at) [1]: −2.21
- FC ecotropic viral integration site 2A (204774_at) [1]: −1.77
- FC fibroblast growth factor 9 (glia-activating factor) (206404_at) [1]: 2.07
- FC insulin-like growth factor 1 (somatomedin C) (209540_at) [1]: 4.39
- FC insulin-like growth factor 1 (somatomedin C) (209541_at) [1]: 2.78
- FC insulin-like growth factor 1 (somatomedin C) (209542_x_at) [1]: 3.23
- FC insulin-like growth factor 1 (somatomedin C) (211577_s_at) [1]: 3.47
- FC mitogen-activated protein kinase 13 (210058_at) [1]: 2.27
- FC mitogen-activated protein kinase 13 (210059_s_at) [1]: 3.27
- FC myosin heavy polypeptide 10, non-muscle (213067_at) [1]: −2.03
- FC putative lymphocyte G0/G1 switch gene (213524_s_at) [1]: 3.69
- FC retinoblastoma-like 2 (p130) (212332_at) [1]: 1.10
- FC suppressor of cytokine signaling 2 (203372_s_at) [1]: −2.29
- FC suppressor of cytokine signaling 2 (203373_at) [1]: −2.50
- FC tetraspan 1 (209114_at) [1]: −4.34
- FC transforming growth factor, beta 2 (209909_s_at) [1]: 2.91
- FC transforming growth factor, beta 2 (220407_s_at) [1]: 2.97
- FC transforming growth factor, beta 3 (209747_at) [1]: 2.83
- FC angiopoietin 1 (NM_001146) [1]: 2.0
- FC coagulation factor II (thrombin) receptor-like 1 (NM_005242) [1]: −1.7
- FC endothelin receptor type B (NM_000115) [1]: 3.4
- FC fibroblast growth factor 9 (glia-activating factor) (NM_002010) [1]: 2.1
- FC fibroblast growth factor receptor 3 (achondroplasia, thanatophoric dwarfism) (NM_000142) [1]: 1.9
- FC insulin-like growth factor 1 (somatomedin C) (NM_000618) [1]: 2.8
- FC matrix metalloproteinase 14 (membrane-inserted) (NM_004995) [1]: 2.1
- FC natriuretic peptide precursor B (NM_002521) [1]: −2.0
- FC oxytocin receptor (NM_000916) [1]: −3.0
- FC phospholamban (NM_002667) [1]: −2.6
- FC prostaglandin-endoperoxide synthase 1 (prostaglandin G/H synthase and cyclooxygenase) (NM_000962) [1]: 2.2
- FC thrombomodulin (NM_000361) [1]: 3.3
- FC thrombospondin 1 (AI812030) [1]: −3.2
- FC transforming growth factor, beta 2 (NM_003238) [1]: 2.9
- FC transforming growth factor, beta 3 (J03241) [1]: 2.9

Compound: CC(=O)O[C@H]1C(=O)[C@@]2(C)[C@H]([C@H](OC(=O)c3ccccc3)[C@]3(O)C[C@H](OC(=O)[C@H](O)[C@@H](NC(=O)c4ccccc4)c4ccccc4)C(C)=C1C3(C)C)[C@]1(OC(C)=O)CO[C@@H]1C[C@@H]2O [taxol]
- effect on DNA synthesis ([3H]-thymidine incorporation) ([2]; Example 1, even at 0.01 nM, FIG. 3): severely impacted DNA synthesis

Compound: C[C@H](/C=C/[C@H](C)C(C)(C)O)[C@H]1CC[C@H]2/C(=C/C=C3C[C@@H](O)C[C@H](O)C3)CCC[C@]12C [paricalcitol, 19-nor-1α,3β,25-trihydroxy-9,10-secoergosta-5(Z); 7(E),22(E)-triene]
- EC50 ([2]; Homo sapiens, Example 1, CASMC, FIG. 4, read-out: EC50 inhibiting DNA synthesis ([3H]-thymidine incorporation)): 0.044 ± 0.004 nM
- EC50 ([2]; Homo sapiens, Example 2, FIG. 8, read-out: EC50 inhibition of 3H-thymidine incorporation): 0.2 nM
- inhibition at 0.01 µM ([2]; Homo sapiens, Example 2, at 10 nM, compared to cells in growth medium): 46%
- potency in reducing PAI-1 level / inhibiting PAI-1 expression [3]: as potent as calcitriol
- FC CD1D antigen, d polypeptide (205789_at) [1]: 5.38
- FC CDK5 regulatory subunit associated protein 2 (220935_s_at) [1]: 2.91
- FC Kruppel-like factor 4 (gut) (220266_s_at) [1]: 2.37
- FC PMS2 postmeiotic segregation increased 2 (S. cerevisiae) (209805_at) [1]: 2.18
- FC Wilms tumor 1 (206067_s_at) [1]: 3.32
- FC Wilms tumor 1 (216953_s_at) [1]: 4.64
- FC Wilms tumor associated protein (206954_at) [1]: 2.72
- FC basic helix-loop-helix domain containing, class B, 3 (221530_s_at) [1]: −1.80
- FC cholecystokinin B receptor (210381_s_at) [1]: −3.04
- FC cyclin F (204827_s_at) [1]: −2.75
- FC cysteine and glycine-rich protein 2 (207030_s_at) [1]: −2.18
- FC cysteine and glycine-rich protein 2 (211126_s_at) [1]: −2.33
- FC ecotropic viral integration site 2A (204774_at) [1]: −2.49
- FC fibroblast growth factor 9 (glia-activating factor) (206404_at) [1]: 1.88
- FC insulin-like growth factor 1 (somatomedin C) (209540_at) [1]: 4.89
- FC insulin-like growth factor 1 (somatomedin C) (209541_at) [1]: 2.63
- FC insulin-like growth factor 1 (somatomedin C) (209542_x_at) [1]: 3.24
- FC insulin-like growth factor 1 (somatomedin C) (211577_s_at) [1]: 3.43
- FC mitogen-activated protein kinase 13 (210058_at) [1]: 2.40
- FC mitogen-activated protein kinase 13 (210059_s_at) [1]: 3.26
- FC myosin heavy polypeptide 10, non-muscle (213067_at) [1]: −1.80
- FC putative lymphocyte G0/G1 switch gene (213524_s_at) [1]: 3.46
- FC retinoblastoma-like 2 (p130) (212332_at) [1]: −1.37
- FC suppressor of cytokine signaling 2 (203372_s_at) [1]: −2.70
- FC suppressor of cytokine signaling 2 (203373_at) [1]: −2.39
- FC tetraspan 1 (209114_at) [1]: −1.79
- FC transforming growth factor, beta 2 (209909_s_at) [1]: 2.48
- FC transforming growth factor, beta 2 (220407_s_at) [1]: 1.88
- FC transforming growth factor, beta 3 (209747_at) [1]: 2.80
- FC angiopoietin 1 (NM_001146) [1]: 1.7
- FC coagulation factor II (thrombin) receptor-like 1 (NM_005242) [1]: −2.1
- FC endothelin receptor type B (NM_000115) [1]: 2.3
- FC fibroblast growth factor 9 (glia-activating factor) (NM_002010) [1]: 1.9
- FC fibroblast growth factor receptor 3 (achondroplasia, thanatophoric dwarfism) (NM_000142) [1]: 3.4
- FC insulin-like growth factor 1 (somatomedin C) (NM_000618) [1]: 2.5
- FC matrix metalloproteinase 14 (membrane-inserted) (NM_004995) [1]: 1.1
- FC natriuretic peptide precursor B (NM_002521) [1]: −2.5
- FC oxytocin receptor (NM_000916) [1]: −2.6
- FC phospholamban (NM_002667) [1]: −2.4
- FC prostaglandin-endoperoxide synthase 1 (prostaglandin G/H synthase and cyclooxygenase) (NM_000962) [1]: 2.0
- FC thrombomodulin (NM_000361) [1]: 3.0
- FC thrombospondin 1 (AI812030) [1]: −2.7
- FC transforming growth factor, beta 2 (NM_003238) [1]: 2.5
- FC transforming growth factor, beta 3 (J03241) [1]: 2.9
- EC50 [4]: 0.2 nM
- EC50 [5]: 29.7 nM
- EC50 [6]: 10.6 nM
- VDR translocation (confocal microscopy) [7]: VDR translocated into the nucleus
